Experimental findings from US20230043863A1, “HETEROAROMATIC DERIVATIVES FOR USE AS REGULATOR, PREPARATION METHOD THEREFOR AND USE THEREOF” (JIANGSU HANSOH PHARMACEUTICAL GROUP CO., LTD., priority 2018, published 2023) are described below.

Molecules are shown by their SMILES.

Broadly, the IC50 is the concentration that inhibits the measured activity by half.

Assay [1] deals with JAK1 (Homo sapiens, UniProt P23458). Put plainly: JAK kinase activity inhibition, TR-FRET (JAK1). The class given is biochemical. The settings on record: TR-FRET kinase assay. The method, then: (§1) Experimental objective: The objective of this test is to test the inhibitory effect of the compound on JAK kinase activity.
Sequence of JAK1 (P23458 whole entry): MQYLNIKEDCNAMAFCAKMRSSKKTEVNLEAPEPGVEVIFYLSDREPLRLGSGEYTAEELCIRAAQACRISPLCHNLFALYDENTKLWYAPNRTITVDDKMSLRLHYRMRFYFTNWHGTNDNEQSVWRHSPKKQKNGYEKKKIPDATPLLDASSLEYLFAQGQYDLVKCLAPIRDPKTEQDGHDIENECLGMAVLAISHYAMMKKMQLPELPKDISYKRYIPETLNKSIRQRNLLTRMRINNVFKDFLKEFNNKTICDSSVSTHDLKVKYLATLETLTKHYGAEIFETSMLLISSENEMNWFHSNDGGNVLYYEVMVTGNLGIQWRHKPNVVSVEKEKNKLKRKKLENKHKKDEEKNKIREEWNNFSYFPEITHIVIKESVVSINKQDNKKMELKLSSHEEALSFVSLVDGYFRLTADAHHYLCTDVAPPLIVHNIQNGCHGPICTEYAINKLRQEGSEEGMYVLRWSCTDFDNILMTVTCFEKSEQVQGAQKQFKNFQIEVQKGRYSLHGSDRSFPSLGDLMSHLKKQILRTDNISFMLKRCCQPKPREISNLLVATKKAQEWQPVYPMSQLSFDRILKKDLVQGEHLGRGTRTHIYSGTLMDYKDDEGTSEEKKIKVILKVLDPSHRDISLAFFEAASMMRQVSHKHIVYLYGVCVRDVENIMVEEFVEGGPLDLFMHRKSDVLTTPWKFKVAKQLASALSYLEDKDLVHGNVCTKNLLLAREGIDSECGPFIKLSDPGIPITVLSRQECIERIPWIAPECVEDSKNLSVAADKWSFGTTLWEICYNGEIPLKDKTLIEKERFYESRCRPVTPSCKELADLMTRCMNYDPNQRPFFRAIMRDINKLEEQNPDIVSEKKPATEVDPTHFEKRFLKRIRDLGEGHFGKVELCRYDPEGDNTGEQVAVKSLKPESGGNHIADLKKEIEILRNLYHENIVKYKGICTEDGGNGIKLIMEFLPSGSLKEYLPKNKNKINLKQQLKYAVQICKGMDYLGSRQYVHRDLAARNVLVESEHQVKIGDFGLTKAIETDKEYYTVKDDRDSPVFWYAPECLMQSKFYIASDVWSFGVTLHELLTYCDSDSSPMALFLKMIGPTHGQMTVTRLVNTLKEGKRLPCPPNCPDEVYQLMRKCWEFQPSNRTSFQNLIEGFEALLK
(§2) Experimental method: the fluorescence resonance energy transfer (TR-FRET) method was used to test the inhibitory effect of the compound on JAK kinase activity, and the half inhibitory concentration IC50 of the compound on JAK kinase activity was obtained.
(§3) Kinase reaction was carried out in a white 384-well plate (PerkinElmer). 1-5 μL of different concentrations of the compound diluted with DMSO and ddH2O was added into each well, and 1-5 μL of the corresponding solvent was added to the positive control wells, followed by addition of 0.1-20 nM JAK kinase solution diluted with 1-5 μL of kinase buffer (HEPES 50-250 mM, MgCl2 5-20 mM, etc.) was added to each well. 1-5 μL of kinase buffer was added to the negative control well. 1-5 μL of substrate mixture containing peptide substrate and ATP was added. The plate was incubated at room temperature for 0.5-5 hours. […], EDTA and detection solution containing labeled antibody was added, and then the plate was incubated at room temperature for another 1-24 hours. The fluorescence signal value at about 620 nm and 665 nm of each well was measured by BioTek Synergy H1 plate reader, and the inhibition rate was calculated by the fluorescence signal value. According to the inhibition rate of different concentrations, the IC50 of the compound was obtained by curve fitting.
(§4) The percentage inhibition data of the wells treated with the compound was calculated with the positive control wells (DMSO control wells) and negative control wells (no kinase added) on the plate {% inhibition rate=100-[(test compound value-negative control value)]/(Positive control value-negative control value)×100}. IC50 value was calculated by using GraphPad prism to fit the data of different concentrations and corresponding percentage inhibition rates to a 4-parameter non-linear logic formula.

For assay [2], the target named is TYK2 (Homo sapiens, UniProt P29597). Put plainly: JAK kinase activity inhibition, TR-FRET (TYK2). The class given is biochemical. The note with it: TR-FRET kinase assay. The method, then: as §1, §2, §3, §4
Sequence of TYK2 (P29597 whole entry): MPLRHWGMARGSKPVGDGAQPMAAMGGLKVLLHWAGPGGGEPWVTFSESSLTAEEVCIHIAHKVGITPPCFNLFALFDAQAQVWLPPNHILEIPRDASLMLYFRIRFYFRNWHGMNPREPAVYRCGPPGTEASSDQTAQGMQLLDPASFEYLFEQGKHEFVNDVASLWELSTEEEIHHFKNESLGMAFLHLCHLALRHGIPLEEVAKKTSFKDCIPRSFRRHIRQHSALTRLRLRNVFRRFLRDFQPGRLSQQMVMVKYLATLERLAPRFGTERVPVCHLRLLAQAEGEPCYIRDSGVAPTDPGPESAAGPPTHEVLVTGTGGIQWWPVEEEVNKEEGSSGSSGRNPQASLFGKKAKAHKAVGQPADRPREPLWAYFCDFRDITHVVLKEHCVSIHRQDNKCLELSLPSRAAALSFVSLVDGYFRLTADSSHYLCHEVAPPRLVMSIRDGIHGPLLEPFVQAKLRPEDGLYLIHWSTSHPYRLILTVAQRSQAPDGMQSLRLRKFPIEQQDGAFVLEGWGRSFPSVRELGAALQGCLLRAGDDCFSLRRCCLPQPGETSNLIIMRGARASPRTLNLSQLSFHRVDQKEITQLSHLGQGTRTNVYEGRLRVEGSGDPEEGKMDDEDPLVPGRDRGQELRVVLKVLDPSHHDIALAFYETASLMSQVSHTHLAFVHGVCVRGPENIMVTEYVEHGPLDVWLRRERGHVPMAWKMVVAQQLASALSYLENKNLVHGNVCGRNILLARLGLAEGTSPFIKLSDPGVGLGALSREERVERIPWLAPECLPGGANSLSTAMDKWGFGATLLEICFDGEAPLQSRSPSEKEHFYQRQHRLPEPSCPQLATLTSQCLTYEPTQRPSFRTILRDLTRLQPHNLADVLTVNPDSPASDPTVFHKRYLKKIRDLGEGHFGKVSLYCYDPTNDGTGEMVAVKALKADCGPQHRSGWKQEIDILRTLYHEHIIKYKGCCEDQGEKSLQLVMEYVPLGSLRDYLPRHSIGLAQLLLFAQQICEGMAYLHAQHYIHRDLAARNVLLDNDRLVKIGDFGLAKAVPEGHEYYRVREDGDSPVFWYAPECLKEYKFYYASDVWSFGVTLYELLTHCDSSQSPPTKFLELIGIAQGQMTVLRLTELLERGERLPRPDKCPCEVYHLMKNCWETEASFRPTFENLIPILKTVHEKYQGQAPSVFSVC
Background: In TR-FRET formats the signal depends on donor and acceptor labels being close together.

The test system of assay [3] is JAK-STAT signal pathway of U266 cells. Put plainly: Inhibition of cellular JAK-STAT signal pathway (STAT3 phosphorylation) in U266 cells. The class given is cell-based, human. The method, then: The objective of the test is to test the inhibitory activity of the compound on the cellular JAK-STAT signaling pathway.
U266 cell line was used in this experiment, by activating the JAK-STAT signaling pathway through INF-a stimulation, the inhibitory activity of the compound on its downstream STAT3 phosphorylation was detected, and the half inhibitory concentration IC50 of the compound on the JAK-STAT signaling pathway activity was obtained.
3-12 μL of U266 cell line was spread into the 384-well detection plate, and the number of cells in each well was 100-300 K, followed by addition of 2 μL of the compound solution serially diluted. The plate was incubated for 2 hours with shaking at 350 rpm at room temperature. After 2 hours, 2 μL of INF-a with a final concentration of 1000 U/mL was added. The plate was shaken at room temperature for 15 minutes. 2-5 μL (5×) LANCE Ultra Lysis Buffer 2 solution was added and the plate was shaken at room temperature for 2 hours. After 2 hours, 5 μL of LANCE Ultra Eu-labeled Anti-STAT3 Antibody (PerkinElmer) with a final concentration of 0.5 nM and LANCE Ultra ULight-labeled Anti-STAT3 Antibody (PerkinElmer) with a final concentration of 5 nM were added, and the plate was incubated overnight at room temperature. The fluorescence signal value at 665 nm of each well was measured with the microplate reader, and the inhibition rate was calculated from the fluorescence signal value. According to the inhibition rate of different concentrations, the IC50 of the compound was obtained by curve fitting.
as §4

[4] abbreviates: Homo sapiens, U-266, INF-a 1000 U/mL stimulation.

On to `Cc1cc(Nc2nc(N[C@@H]3C[C@@H]4CN(CCC#N)C[C@@H]4C3)nc3sccc23)n[nH]1` [Embodiment 298, 3-(cis-5-((4-((5-methyl-1H-pyrazol-3-yl)amino)thieno[2,3-d]pyrimidin-2-yl)amino)hexahydrocyclopentadieno[c]pyrrole-2(1H)-yl)propionitrile], for which the results for the IC50 in assay [1], in assay [2] and in assay [3] (setting [4]) were 0.67 nM, 22.8 nM and 1.86 nM, respectively.

`Cc1cc(Nc2nc(N[C@@H]3C[C@H]4CC[C@@H](C3)N4CCC#N)c3cccn3n2)n[nH]1` [Embodiment 72, 3-((3-exo)-3-((2-((5-methyl-1H-pyrazol-3-yl)amino)pyrrolo[2,1-f][1,2,4]triazin-4-yl)amino)-8-azabicyclo[3.2.1]oct-8-yl)propionitrile]: the IC50 in assay [1] came to 4.32 nM; in assay [2], 16 nM; in assay [3] (setting [4]), 5.39 nM.

Take `Cc1cc(Nc2nc(N[C@@H]3C[C@H]4CCC[C@@H](C3)N4Cc3nccn3C)nc3sccc23)n[nH]1` [Embodiment 272, N^2-((3-exo)-9-((1-methyl-1H-imidazol-2-yl)methyl)-9-azabicyclo[3.3.1]non-3-yl)-N^4-(5-methyl-1H-pyrazol-3-yl)thieno[2,3-d]pyrimidin-2,4-diamine]: the IC50 in assay [1] was 0.6 nM; in assay [2], 24.7 nM; in assay [3] (setting [4]), 15.3 nM.

As for `Cc1cc(Nc2nc(N[C@@H]3C[C@H]4CCC[C@@H](C3)N4C(=O)CN3CCN(C)CC3)nc3sccc23)n[nH]1` [Embodiment 258, 1-((3-exo)-3-((4-((5-methyl-1H-pyrazol-3-yl)amino)thieno[2,3-d]pyrimidin-2-yl)amino)-9-azabicyclo[3.3.1]non-9-yl)-2-(4-methylpiperazin-1-yl)ethane-1-one], the IC50 in assay [1] was 0.27 nM; in assay [2] it was 0.61 nM; in assay [3] (setting [4]) it was 32.7 nM.

`Cc1cc(Nc2nc(N[C@@H]3C[C@H]4CCC[C@@H](C3)N4CC(=O)N(C)C)nc3sccc23)n[nH]1` [Embodiment 270, N,N-dimethyl-2-((3-exo)-3-((4-((5-methyl-1H-pyrazol-3-yl)amino)thieno[2,3-d]pyrimidin-2-yl)amino)-9-azabicyclo[3.3.1]non-9-yl)acetamide]: the IC50 in assay [1] is 1.22 nM; in assay [2], 5.78 nM; in assay [3] (setting [4]), 14.3 nM.

As to `Cc1cc(Nc2nc(N[C@@H]3C[C@H]4CC[C@@H](C3)N4S(=O)(=O)N3CC(C#N)C3)nc3ccsc23)n[nH]1` [Embodiment 285], the IC50 in assay [1] was found to be 0.17 nM; in assay [2] it was 0.51 nM; in assay [3] (setting [4]) it was 42 nM.

`Cc1cc(Nc2nc(N[C@@H]3C[C@H]4CCC[C@@H](C3)N4C(=O)c3cccnc3)nc3sccc23)n[nH]1` [Embodiment 261, ((3-exo)-3-((4-((5-methyl-1H-pyrazol-3-yl)amino)thieno[2,3-d]pyrimidin-2-yl)amino)-9-azabicyclo[3.3.1]non-9-yl)(pyridin-3-yl)methanone]: the half-maximal inhibitory concentration (IC50) was found to be 0.04 nM in assay [1], 5.58 nM in assay [2] and 10.6 nM in assay [3] (setting [4]).

With `CCNCC(=O)N1[C@@H]2CC[C@H]1C[C@H](Nc1nc(Nc3cc(C)[nH]n3)c3ccsc3n1)C2` [Embodiment 255, 2-(ethylamino)-1-((3-exo)-3-((4-((5-methyl-1H-pyrazol-3-yl)amino)thieno[2,3-d]pyrimidin-2-yl)amino)-8-azabicyclo[3.2.1]oct-8-yl)ethane-1-one], the IC50 in assay [1] is 1.17 nM; in assay [2], 2.38 nM; in assay [3] (setting [4]) it was 8.67 nM.

For the compound `Cc1cc(Nc2nc(N[C@@H]3C[C@H]4CC[C@@H](C3)N4CCC#N)nc3scnc23)n[nH]1` [Embodiment 66, 3-((3-exo)-3-((7-((5-methyl-1H-pyrazol-3-yl)amino)thiazolo[5,4-d]pyrimidin-5-yl)amino)-8-azabicyclo[3.2.1]oct-8-yl)propionitrile], the values for the IC50 in assay [1], in assay [2] and in assay [3] (setting [4]) were 3.02 nM, 1.49 nM and 4.06 nM, respectively.

In the case of `O=C(C(F)F)N1[C@@H]2CC[C@H]1C[C@H](Nc1nc(Nc3ncc(CO)s3)cc3ncccc13)C2` [Embodiment 166, 2,2-difluoro-1-((3-exo)-3-((7-((5-(hydroxymethyl)thiazol-2-yl)amino)-1,6-diazanaphthalen-5-yl)amino)-8-azabicyclo[3.2.1]oct-8-yl)ethane-1-one], the IC50 in assay [1] came out at 0.19 nM; in assay [2], 9.31 nM; in assay [3] (setting [4]), 26.7 nM.

Consider `Cc1cc(Nc2nc(N[C@@H]3C[C@H]4CCC[C@@H](C3)N4C(=O)[C@H]3COCCN3)nc3sccc23)n[nH]1` [Embodiment 250, ((3-exo)-3-((4-((5-methyl-1H-pyrazol-3-yl)amino)thieno[2,3-d]pyrimidin-2-yl)amino)-9-azabicyclo[3.3.1]non-9-yl)((R)-morpholine-3-yl)methanone], for which the IC50 in assay [1] worked out at 0.04 nM; in assay [2], 0.07 nM; in assay [3] (setting [4]) it was 7.3 nM.

`N#CCCN1[C@@H]2CCC[C@H]1C[C@H](Nc1nc(Nc3ncc(CO)s3)cc3ncccc13)C2` [Embodiment 163, 3-((3-exo)-3-((7-((5-(hydroxymethyl)thiazol-2-yl)amino)-1,6-diazanaphthalen-5-yl)amino)-9-azabicyclo[3.3.1]non-9-yl)propionitrile]: the IC50 in assay [1] is 0.45 nM; in assay [2], 24.4 nM; in assay [3] (setting [4]), 52.6 nM.

`Cc1cc(Nc2nc(N[C@@H]3C[C@H]4CC[C@@H](C3)N4C(=O)[C@H]3CCCN3)nc3sccc23)n[nH]1` [Embodiment 248, ((3-exo)-3-((4-((5-methyl-1H-pyrazol-3-yl)amino)thieno[2,3-d]pyrimidin-2-yl)amino)-9-azabicyclo[3.3.1]non-9-yl) ((R)-pyrrolidin-2-yl)methanone]: the IC50 in assay [1] worked out at 0.44 nM; in assay [2], 0.36 nM; in assay [3] (setting [4]) it was 43.5 nM.

As to `Cc1cc(Nc2cc3nccnc3c(N[C@@H]3C[C@H]4CC[C@@H](C3)N4CCC#N)n2)n[nH]1` [Embodiment 88, 3-((3-exo)-3-((7-((5-methyl-1H-pyrazol-3-yl)amino)pyrido[3,4-b]pyrazin-5-yl)amino)-8-azabicyclo[3.2.1]oct-8-yl)propionitrile], the IC50 in assay [1] was 1.75 nM; in assay [2], 3.53 nM; in assay [3] (setting [4]) it was 3.1 nM.

Regarding `Cc1cc(Nc2nc(N(C)[C@@H]3C[C@H]4CC[C@@H](C3)N4C(=O)CN3CCOCC3)nc3sccc23)n[nH]1` [Embodiment 245, 1-((3-exo)-3-(methyl(4-((5-methyl-1H-pyrazol-3-yl)amino)thieno[2,3-d]pyrimidin-2-yl)amino)-8-azabicyclo[3.2.1]oct-8-yl)-2-morpholinoethane-1-one], the IC50 in assay [1] was found to be 2.77 nM; in assay [2], 2.76 nM; in assay [3] (INF-a 1000 U/mL stimulation) it was 16.7 nM.

Consider `Cc1cc(Nc2nc(N[C@@H]3C[C@H]4CCC[C@@H](C3)N4C(=O)c3cn(C)cn3)nc3sccc23)n[nH]1` [Embodiment 264, (1-methyl-1H-imidazol-4-yl) ((3-exo)-3-((4-((5-methyl-1H-pyrazol-3-yl)amino)thieno[2,3-d]pyrimidin-2-yl)amino)-9-azabicyclo[3.3.1]non-9-yl)methanone], for which the values for the IC50 in assay [1], in assay [2] and in assay [3] (setting [4]) were 0.19 nM, 0.48 nM and 33.5 nM, respectively.

On to `OCc1cnc(Nc2cc3ncccc3c(N[C@@H]3C[C@H]4CC[C@@H](C3)N4CCF)n2)s1` [Embodiment 167, (2-((5-(((3-exo)-8-(2-fluoroethyl)-8-azabicyclo[3.2.1]oct-3-yl)amino)-1,6-diazanaphthalen-7-yl)amino)thiazol-5-yl)methanol], for which the IC50 in assay [1] turned out to be 2.55 nM; in assay [2], 7.28 nM; in assay [3] (setting [4]), 14.8 nM.

Take `Cc1cc(Nc2nc(N[C@@H]3C[C@H]4CC[C@@H](C3)N4C(=O)CN(C)C)nc3ccccc23)n[nH]1` [Embodiment 225, 2-(dimethylamine)-1-((3-exo)-3-((4-((5-methyl-1H-pyrazol-3-yl)amino)quinazolin-2-yl)amino)-8-azabicyclo[3.2.1]oct-8-yl)ethane-1-one]: the IC50 was 9.16 nM in assay [1] and 0.94 nM in assay [2].
